The results in this text go back to US11655235B2, “Pyrrolidine and piperidine compounds” (YUHAN CORPORATION, priority 2019, dated 2023).

The target of one test is T1, Recombinant human FAP (Homo sapiens, UniProt Q12884).
T1 construct: purchased R&D systems
T1 sequence (Q12884 1-760): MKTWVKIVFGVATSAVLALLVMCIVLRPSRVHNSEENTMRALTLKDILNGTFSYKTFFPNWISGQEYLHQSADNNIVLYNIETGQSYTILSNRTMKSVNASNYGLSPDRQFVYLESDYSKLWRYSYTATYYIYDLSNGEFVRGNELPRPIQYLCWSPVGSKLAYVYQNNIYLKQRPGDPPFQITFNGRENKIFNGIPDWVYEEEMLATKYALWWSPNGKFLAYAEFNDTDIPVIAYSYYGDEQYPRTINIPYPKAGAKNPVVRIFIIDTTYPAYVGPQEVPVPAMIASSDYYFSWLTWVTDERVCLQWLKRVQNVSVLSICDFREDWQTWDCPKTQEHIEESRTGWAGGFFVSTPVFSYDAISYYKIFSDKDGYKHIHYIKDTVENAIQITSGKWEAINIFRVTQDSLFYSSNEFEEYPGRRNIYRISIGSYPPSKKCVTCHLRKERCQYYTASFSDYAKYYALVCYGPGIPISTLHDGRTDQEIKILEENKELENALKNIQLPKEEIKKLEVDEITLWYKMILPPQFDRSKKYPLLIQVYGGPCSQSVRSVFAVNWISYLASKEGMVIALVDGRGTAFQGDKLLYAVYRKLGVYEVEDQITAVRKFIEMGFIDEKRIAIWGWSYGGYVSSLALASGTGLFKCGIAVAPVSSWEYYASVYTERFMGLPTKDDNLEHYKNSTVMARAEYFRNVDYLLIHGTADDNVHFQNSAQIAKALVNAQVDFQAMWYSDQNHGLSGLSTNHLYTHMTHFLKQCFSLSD
Kind of test: FAP inhibition, fluorogenic substrate Z-Gly-Pro-AMC. The following applies: for inhibition at 1 µM: read-out: hFAP inhibition % at 1 μM. The class given is biochemical. How it is done:
The compounds according to the present technology were evaluated in terms of the inhibitory effect on the activity of dipeptidyl peptidases including FAP by using a substrate producing fluorescent substances upon enzymatic decomposition. The test was conducted at 25° C. to get a final reaction volume of 100 μL in a 96 black well plate. […] Briefly, the test compounds were dissolved in dimethyl sulfoxide (DMSO) at a concentration of 20 mM and then subjected to serial dilution, thereby creating an 8 point curve. As for the control group, a 6 point curve created by serial dilution of Talabostat in the same buffer solution was used. Fluorescence intensity was measured using a microplate reader (Flexstation3, Molecular Devices) under the wavelength condition exciting at 380 nm and reading the emission at 460 nm. The inhibitory effect of the test compounds was measured as a decrease (%) in the signal rate as compared to the control group without any inhibitor. Data was fixed to a logistic model with four variables and IC50 value was calculated using GraphPad Prism program. Recombinant human FAP (R&D systems) was diluted with 50 mM tris (pH 7.5) buffer comprising 1 M of sodium chloride and 1 mg/ml of bovine serum albumin (BSA) to be 10 ng per final reaction. The test compounds were subjected to serial dilution in a buffer under the condition containing up to 0.1% of DMSO. Z-Gly-Pro-AMC (Bachem) was used as a substrate. By dissolving in DMSO and then diluting in the same buffer, the substrate was added to be […] per final reaction.

For a further test, the target named is DPP4 (Homo sapiens, UniProt P27487). Kind of test: DPP4 inhibition, fluorogenic substrate H-Gly-Pro-AMC. Format: biochemical. Further details: purchased R&D Systems. The conditions noted are these: for inhibition at 1 µM: read-out: hDPP4 inhibition % at 1 μM; for IC50: recombinant human DPP4. As to the method:
The compounds according to the present technology were evaluated in terms of the inhibitory effect on the activity of dipeptidyl peptidases including FAP by using a substrate producing fluorescent substances upon enzymatic decomposition. The test was conducted at 25° C. to get a final reaction volume of 100 μL in a 96 black well plate. […] Briefly, the test compounds were dissolved in dimethyl sulfoxide (DMSO) at a concentration of 20 mM and then subjected to serial dilution, thereby creating an 8 point curve. As for the control group, a 6 point curve created by serial dilution of Talabostat in the same buffer solution was used. Fluorescence intensity was measured using a microplate reader (Flexstation3, Molecular Devices) under the wavelength condition exciting at 380 nm and reading the emission at 460 nm. The inhibitory effect of the test compounds was measured as a decrease (%) in the signal rate as compared to the control group without any inhibitor. Data was fixed to a logistic model with four variables and IC50 value was calculated using GraphPad Prism program. As for recombinant human DPP4 (R&D Systems), 25 mM tris (pH 8.0) buffer as a buffer solution and H-Gly-Pro-AMC (Bachem) as a substrate were used. As for recombinant human DPP7 (R&D Systems), 25 mM MES (pH 6.0) buffer as a buffer solution and Lys-Pro-AMC (Bachem) as a substrate were used. As for recombinant human DPP8 (PBS Bioscience), as a buffer solution, a 10 mM tris (pH 7.4) buffer comprising 10 mM of magnesium chloride and 0.05% of Tween 20, and Z-Ala-Pro-AMC (BPS Bioscience) as a substrate were used. As for recombinant human DPP9 (R&D Systems), a 25 mM tris (pH 8.0) buffer as a buffer solution and H-Gly-Pro-AMC (Bachem) as a substrate were used. As for recombinant human PREP (R&D System), as a buffer solution, a 25 mM tris (pH 7.5) buffer comprising 250 mM sodium chloride and 2.5 mM DTT (Dithiolthreitol), and Z-Gly-Pro-AMC (Bachem) as a substrate were used. The evaluation was made by using 10 ng of DPP4, PDD7, and PREP, 20 ng of DPP8, and 50 ng of DPP9 based on the final reaction. In the evaluation of DPP4, the test compounds were subjected to serial dilution in a buffer under the condition containing up to 0.1% of DMSO. In the evaluation of DPP7, DPP8, DPP9, and PREP, the test compounds were subjected to serial dilution in each buffer under the condition containing up to 0.5% of DMSO.

Setting [1] is: 25° C., Z-Gly-Pro-AMC substrate.
The mark [2] stands for this setting: recombinant human FAP, substrate Z-Gly-Pro-AMC.

Chain of DPP4 (P27487 whole entry): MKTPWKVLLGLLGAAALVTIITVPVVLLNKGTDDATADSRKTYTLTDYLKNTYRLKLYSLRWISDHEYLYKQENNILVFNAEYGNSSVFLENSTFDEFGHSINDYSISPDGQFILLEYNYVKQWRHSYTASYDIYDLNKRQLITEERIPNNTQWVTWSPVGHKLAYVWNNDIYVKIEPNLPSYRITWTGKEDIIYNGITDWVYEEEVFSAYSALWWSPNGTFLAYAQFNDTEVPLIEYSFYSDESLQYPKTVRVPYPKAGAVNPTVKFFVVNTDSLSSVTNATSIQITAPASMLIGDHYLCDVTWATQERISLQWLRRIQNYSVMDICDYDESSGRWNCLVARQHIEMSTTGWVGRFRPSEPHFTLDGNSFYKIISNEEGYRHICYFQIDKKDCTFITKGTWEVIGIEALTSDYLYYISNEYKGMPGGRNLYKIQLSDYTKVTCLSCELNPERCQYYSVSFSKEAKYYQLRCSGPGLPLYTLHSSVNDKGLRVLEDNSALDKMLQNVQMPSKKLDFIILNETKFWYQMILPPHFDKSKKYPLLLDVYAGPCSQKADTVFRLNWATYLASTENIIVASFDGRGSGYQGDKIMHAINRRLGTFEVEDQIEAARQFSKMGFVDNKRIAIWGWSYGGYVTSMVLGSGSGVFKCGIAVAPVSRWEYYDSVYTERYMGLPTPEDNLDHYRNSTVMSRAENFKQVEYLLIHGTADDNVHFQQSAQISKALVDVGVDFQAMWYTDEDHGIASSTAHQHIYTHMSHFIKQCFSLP

Consider `N#C[C@@H]1CCCN1C(=O)CN1CC[C@H](NC(=O)Cc2cccc3ccccc23)C1` [Example 38, N—((S)-1-(2-((S)-2-cyanopyrrolidin-1-yl)-2-oxoethyl)pyrrolidin-3-yl)-2-(naphthalen-1-yl)acetamide], for which the IC50 at Recombinant human FAP (setting [1]) is 170 nM. The “hDPP4 inhibition % at 1 μM” value on DPP4 is “No inhibition**”.

`N#C[C@@H]1CCCN1C(=O)CN1CC[C@H](Oc2nccc3scc(Br)c23)C1` [Example 70, (S)-1-(2-((S)-3-((3-bromothieno[3,2-c]pyridin-4-yl)oxy)pyrrolidin-1-yl)acetyl)pyrrolidine-2-carbonitrile]: the 50% inhibitory concentration (IC50) on Recombinant human FAP (setting [1]) was determined as 31.9 nM. Further, on DPP4, the inhibition at 1 µM came to 22.6%.

Take `N#C[C@@H]1CCCN1C(=O)CN1CC[C@H](Oc2cccc3c(Cl)ncnc23)C1` [Example 73, (S)-1-(2-((S)-3-((4-chloroquinazolin-8-yl)oxy)pyrrolidin-1-yl)acetyl)pyrrolidine-2-carbonitrile]: the inhibition at 1 µM at Recombinant human FAP is 97.1%; on DPP4, 1.2%.

Regarding `N#C[C@@H]1CCCN1C(=O)CN1CC[C@H](Nc2cccc3ccsc23)C1` [Example 21, (S)-1-(2-((S)-3-(benzo[b]thiophen-7-ylamino)pyrrolidin-1-yl)acetyl)pyrrolidine-2-carbonitrile], the IC50 at Recombinant human FAP (setting [1]) was determined as 34.1 nM. In addition, the inhibition at 1 µM at DPP4 stood at 3.6%.

With `N#C[C@@H]1CCCN1C(=O)CN1CC[C@H](Oc2cc(-c3ccc(Br)cc3)no2)C1` [Example 102, (S)-1-(2-((S)-3-((3-(4-bromophenyl)isoxazol-5-yl)oxy)pyrrolidin-1-yl)acetyl)pyrrolidine-2-carbonitrile], the inhibition at 1 µM on Recombinant human FAP was found to be 52.4%; at DPP4, 6.2%.

With `CN(c1cccc2ccncc12)C1CCN(CC(=O)N2C[C@@H](F)C[C@H]2C#N)CC1` [Example 320, (2S,4S)-4-fluoro-1-[2-[4-[8-isoquinolyl(methyl)amino]-1-piperidyl]acetyl]pyrrolidine-2-carbonitrile], the IC50 at Recombinant human FAP (setting [2]) came out at 46.2 nM; on DPP4 it was 0.41 µM.

In the case of `N#C[C@@H]1CCCN1C(=O)CN1CC[C@H](Oc2ccccc2-c2cc[nH]n2)C1` [Example 72, (S)-1-(2-((S)-3-(2-(1H-pyrazol-3-yl)phenoxy)pyrrolidin-1-yl)acetyl)pyrrolidine-2-carbonitrile], at Recombinant human FAP (setting [1]), the IC50 is 101 nM. The inhibition at 1 µM at DPP4 was found to be 0.8%.

Consider `N#C[C@@H]1CCCN1C(=O)CN1CC[C@H](NC(=O)c2cc3ccccc3o2)C1` [Example 40, N—((S)-1-(2-((S)-2-cyanopyrrolidin-1-yl)-2-oxoethyl)pyrrolidin-3-yl)benzofuran-2-carboxamide], for which the half-maximal inhibitory concentration (IC50) on Recombinant human FAP (setting [1]) was found to be 38.3 nM. In addition, at DPP4, the inhibition at 1 µM worked out at 3.2%.

With `N#C[C@@H]1CCCN1C(=O)CN1CC[C@@H](C(=O)Nc2cnc3ccccc3c2)C1` [Example 1, (R)-1-(2-((S)-2-cyanopyrrolidin-1-yl)-2-oxoethyl)-N-(quinolin-3-yl)pyrrolidine-3-carboxamide], the IC50 at Recombinant human FAP (setting [1]) is 163 nM. Also, at DPP4, the inhibition at 1 µM is 4.4%.

With `N#C[C@@H]1CCCN1C(=O)CN1CC[C@H](Oc2ccc(Cc3ccccc3)cc2)C1` [Example 89, (S)-1-(2-((S)-3-(4-benzylphenoxy)pyrrolidin-1-yl)acetyl)pyrrolidine-2-carbonitrile], the results for the inhibition at 1 µM at Recombinant human FAP and at DPP4 were 56.8% and 7.9%, respectively.

In the case of `N#C[C@@H]1CCCN1C(=O)CN1CC[C@H](Oc2ccnc3cc(Br)ccc23)C1` [Example 80, (S)-1-(2-((S)-3-((7-bromoquinolin-4-yl)oxy)pyrrolidin-1-yl)acetyl)pyrrolidine-2-carbonitrile], the IC50 at Recombinant human FAP (setting [1]) came out at 20.5 nM. Also, on DPP4, the inhibition at 1 µM stood at 5.1%.

With `N#C[C@@H]1CCCN1C(=O)CN1CC[C@H](NS(=O)(=O)c2cc3ccccc3s2)C1` [Example 60, N—((S)-1-(2-((S)-2-cyanopyrrolidin-1-yl)-2-oxoethyl)pyrrolidin-3-yl)benzo[b]thiophene-2-sulfonamide], the inhibition at 1 µM on Recombinant human FAP stood at 44.2%. In addition, on DPP4, the “hDPP4 inhibition % at 1 μM” value was “No inhibition**”.

Take `N#C[C@@H]1CCCN1C(=O)CN1CC[C@H](Oc2ccc3ncccc3c2)C1` [Example 63, (S)-1-(2-((S)-3-(quinolin-6-yloxy)pyrrolidin-1-yl)acetyl)pyrrolidine-2-carbonitrile]: the IC50 at Recombinant human FAP (setting [1]) turned out to be 130 nM. In addition, the “hDPP4 inhibition % at 1 μM” value at DPP4 is “No inhibition**”.

As for `N#C[C@@H]1C[C@H](F)CN1C(=O)CN1CCC(Oc2ccc(Cl)c3ncccc23)CC1` [Example 418, (2S,4S)-1-[2-[4-[(8-chloro-5-quinolyl)oxy]-1-piperidyl]acetyl]-4-fluoro-pyrrolidine-2-carbonitrile], the figures for the IC50 at Recombinant human FAP (setting [2]) and at DPP4 were 3.7 nM and 4.67 µM, respectively.

On to `N#C[C@@H]1CCCN1C(=O)CN1CC[C@H](NC(=O)c2coc3c(F)cccc23)C1` [Example 50, N—((S)-1-(2-((S)-2-cyanopyrrolidin-1-yl)-2-oxoethyl)pyrrolidin-3-yl)-7-fluorobenzofuran-3-carboxamide], for which the IC50 on Recombinant human FAP (setting [1]) amounted to 16.4 nM. Further, the “hDPP4 inhibition % at 1 μM” value on DPP4 is given as “No inhibition**”.

In the case of `N#C[C@@H]1CCCN1C(=O)CN1CC[C@H](Oc2ccc(Oc3ccccc3)cc2)C1` [Example 87, (S)-1-(2-((S)-3-(4-phenoxyphenoxy)pyrrolidin-1-yl)acetyl)pyrrolidine-2-carbonitrile], the inhibition at 1 µM was determined as 51.9% on Recombinant human FAP and 6.9% at DPP4.

Take `N#C[C@@H]1CCCN1C(=O)CN1CC[C@H](Oc2cccc(-c3ccccc3)c2)C1` [Example 82, (S)-1-(2-((S)-3-([1,1′-biphenyl]-3-yloxy)pyrrolidin-1-yl)acetyl)pyrrolidine-2-carbonitrile]: the inhibition at 1 µM was found to be 72.6% at Recombinant human FAP and 6.5% on DPP4.

On to `N#C[C@@H]1C[C@H](F)CN1C(=O)CN1CCC(Oc2cccc3ncc(F)cc23)CC1` [Example 416, (2S,4S)-4-fluoro-1-[2-[4-[(3-fluoro-5-quinolyl)oxy]-1-piperidyl]acetyl]pyrrolidine-2-carbonitrile], for which the results for the IC50 at Recombinant human FAP (setting [2]) and on DPP4 were 2.3 nM and 6.84 µM, respectively.

The term IC50 denotes the concentration that inhibits the measured activity by half. As a reminder, the inhibition is the relative decrease from the control value, in per cent.
